Where a SMILES comes first, the peptide text is derived from it.
Target: gastrin/CCK-B receptor (Rattus norvegicus)
Test: Inhibitory activity against binding of [125I](Nle11)-HG-13 to gastrin receptor in vitro

`CC[C@H](C)[C@H](NC(=O)[C@H](Cc1c[nH]c2ccccc12)NC(=O)OC(C)(C)C)C(=O)N[C@@H](CC(=O)O)C(N)=O` (HELM PEPTIDE1{[CC(C)(C)OC(=O)[*:2]].W.I.D.[am]}$$$$V2.0) showed an IC50 of 50 µM.

With `CC(C)(C)OC(=O)N[C@@H](Cc1c[nH]c2ccccc12)C(=O)N1CCC[C@H]1C(=O)N[C@@H](CC(=O)O)C(N)=O` [3-({1-[2-tert-Butoxycarbonylamino-3-(1H-indol-3-yl)-propionyl]-pyrrolidine-2-carbonyl}-amino)-succinamic acid] (HELM PEPTIDE1{[CC(C)(C)OC(=O)[*:2]].W.P.D.[am]}$$$$V2.0) the IC50 was 100 µM.

`CSCC[C@H](NC(=O)[C@H](Cc1c[nH]c2ccccc12)NC(=O)CNC(=O)OC(C)(C)C)C(=O)N[C@@H](CC(=O)O)C(N)=O` [3-{2-[2-(2-tert-Butoxycarbonylamino-acetylamino)-3-(1H-indol-3-yl)-propionylamino]-4-methylsulfanyl-butyrylamino}-succinamic acid] (HELM PEPTIDE1{[CC(C)(C)OC(=O)[*:2]].G.W.M.D.[am]}$$$$V2.0) gave an IC50 of 25 µM.

`CC(C)C[C@H](NC(=O)[C@H](Cc1c[nH]c2ccccc12)NC(=O)OCc1ccccc1)C(=O)N[C@@H](CC(=O)O)C(N)=O` [3-{2-[2-Benzyloxycarbonylamino-3-(1H-indol-3-yl)-propionylamino]-4-methyl-pentanoylamino}-succinamic acid] (HELM PEPTIDE1{[O=C(OCc1ccccc1)[*:2]].W.L.D.[am]}$$$$V2.0) was tested, and the IC50 was 40 µM.

For `CC(C)(C)OC(=O)N[C@@H](Cc1c[nH]c2ccccc12)C(=O)N[C@@H](Cc1ccccc1)C(=O)N[C@@H](CC(=O)O)C(N)=O` [3-{2-[2-tert-Butoxycarbonylamino-3-(1H-indol-3-yl)-propionylamino]-3-phenyl-propionylamino}-succinamic acid] (HELM PEPTIDE1{[CC(C)(C)OC(=O)[*:2]].W.F.D.[am]}$$$$V2.0), the IC50 was 30 µM.

In the case of `CC(C)C[C@H](NC(=O)[C@H](Cc1c[nH]c2ccccc12)NC(=O)OC(C)(C)C)C(=O)N[C@@H](CC(=O)O)C(=O)N(C)C` [3-{2-[2-tert-Butoxycarbonylamino-3-(1H-indol-3-yl)-propionylamino]-4-methyl-pentanoylamino}-N,N-dimethyl-succinamic acid] (HELM PEPTIDE1{[CC(C)(C)OC(=O)[*:2]].W.L.D.[CN(C)[*:1]]}$$$$V2.0), the IC50 is reported as 100 µM.

With `CC(C)CC(NC(=O)[C@H](Cc1c[nH]c2ccccc12)NC(=O)OC(C)(C)C)C(=O)N[C@@H](CC(=O)O)C(N)=O` (some centres not stated) [3-{2-[2-tert-Butoxycarbonylamino-3-(1H-indol-3-yl)-propionylamino]-4-methyl-pentanoylamino}-succinamic acid] the IC50 was 50 µM.

Compound `CSCC[C@H](NC(=O)[C@H](Cc1c[nH]c2ccccc12)NC(=O)OC(C)(C)C)C(=O)N[C@@H](CC(=O)O)C(N)=O` [3-{2-[2-tert-Butoxycarbonylamino-3-(1H-indol-3-yl)-propionylamino]-4-methylsulfanyl-butyrylamino}-succinamic acid] (HELM PEPTIDE1{[CC(C)(C)OC(=O)[*:2]].W.M.D.[am]}$$$$V2.0) has an IC50 of 30 µM.

Compound `CCCC[C@H](NC(=O)[C@H](Cc1c[nH]c2ccccc12)NC(=O)OC(C)(C)C)C(=O)N[C@@H](CC(=O)O)C(N)=O` [3-{2-[2-tert-Butoxycarbonylamino-3-(1H-indol-3-yl)-propionylamino]-hexanoylamino}-succinamic acid] (HELM PEPTIDE1{[CC(C)(C)OC(=O)[*:2]].W.[Nle].D.[am]}$$$$V2.0) has an IC50 of 30 µM.

With `CC(C)C[C@H](NC(=O)[C@H](Cc1c[nH]c2ccccc12)NC(=O)OC(C)(C)C)C(=O)N[C@@H](CCC(=O)O)C(N)=O` [4-{2-[2-tert-Butoxycarbonylamino-3-(1H-indol-3-yl)-propionylamino]-4-methyl-pentanoylamino}-4-carbamoyl-butyric acid] (HELM PEPTIDE1{[CC(C)(C)OC(=O)[*:2]].W.L.E.[am]}$$$$V2.0) the IC50 was 20 µM.

For `O=C(N[C@@H](Cc1c[nH]c2ccccc12)C(=O)O)c1ccc(Cl)cc1` [(S)-2-(4-Chloro-benzoylamino)-3-(1H-indol-3-yl)-propionic acid], the IC50 was 250 µM.

`CC(C)C[C@H](NC(=O)[C@H](Cc1c[nH]c2ccccc12)NC(=O)OC(C)(C)C)C(=O)N[C@@H](C)C(N)=O` [[1-[1-(1-Carbamoyl-ethylcarbamoyl)-3-methyl-butylcarbamoyl]-2-(1H-indol-3-yl)-ethyl]-carbamic acid tert-butyl ester] (HELM PEPTIDE1{[CC(C)(C)OC(=O)[*:2]].W.L.A.[am]}$$$$V2.0) showed an IC50 of 150 µM.

From BindingDB's records for doi:10.1021/jm00381a002 (1985)
